Reference: ChEMBL document CHEMBL3616474, “Synthesis of arabinose glycosyl sulfamides as potential inhibitors of mycobacterial cell wall biosynthesis” (2015)
≈ marks a conversion by molar mass, not a printed value.

Tested on: Mycolicibacterium smegmatis
Assay: Antimicrobial activity against Mycobacterium smegmatis incubated for 18 hrs by Alamar blue assay
Format: functional

Going from `CCCCCCCCCCNS(N)(=O)=O` to `CCCCCCCCCCNS(=O)(=O)N[C@H]1OC[C@@H](O)[C@@H](O)[C@@H]1O`, the MIC90 falls from 500 µg/mL (≈ 2120 µM) to 62 µg/mL (≈ 168 µM) (8.1-fold).

First: CCCCCCNS(=O)(=O)N[C@H]1OC[C@@H](O)[C@@H](O)[C@@H]1O
Second: CCCCCCCCNS(=O)(=O)N[C@H]1OC[C@@H](O)[C@@H](O)[C@@H]1O
The MIC90 of the first is higher: > 1000 µg/mL for the first, 500 µg/mL (≈ 1470 µM) for the second.

Compared with `CCCCCCCCCCCCNS(=O)(=O)N[C@H]1OC[C@@H](O)[C@@H](O)[C@@H]1O`, `CCCCCCCCCCCCCCNS(=O)(=O)N[C@H]1OC[C@@H](O)[C@@H](O)[C@@H]1O` is higher in MIC90: 250 µg/mL (≈ 630 µM) for the first, > 1000 µg/mL for the second.

First: CCCCCCN(CCCCCC)S(=O)(=O)N[C@H]1OC[C@@H](O)[C@@H](O)[C@@H]1O
Second: CCCCCCCCN(CCCCCCCC)S(=O)(=O)N[C@H]1OC[C@@H](O)[C@@H](O)[C@@H]1O
The MIC90 of the first is 4-fold lower: 125 µg/mL (≈ 315 µM) for the first, 500 µg/mL (≈ 1100 µM) for the second.

`CCCCCCCCCCN(CCCCCCCCCC)S(=O)(=O)N[C@H]1OC[C@@H](O)[C@@H](O)[C@@H]1O` and `CCCCCCCCCCCCN(CCCCCCCCCCCC)S(=O)(=O)N[C@H]1OC[C@@H](O)[C@@H](O)[C@@H]1O` cannot be ordered by MIC90: > 1000 µg/mL for the first, > 1000 µg/mL for the second.

Going from `CC(C)CCCC(C)CCNS(=O)(=O)N[C@H]1OC[C@@H](O)[C@@H](O)[C@@H]1O` (stereo not given in full) to `O=S(=O)(NCCOCCO)N[C@H]1OC[C@@H](O)[C@@H](O)[C@@H]1O`, the MIC90 rises from 125 µg/mL (≈ 339 µM) to > 1000 µg/mL.

`O=S(=O)(NCCOCCOCCO)N[C@H]1OC[C@@H](O)[C@@H](O)[C@@H]1O` and `O=S(=O)(NCCOCCOCCOCCO)N[C@H]1OC[C@@H](O)[C@@H](O)[C@@H]1O` cannot be ordered by MIC90: > 1000 µg/mL for the first, > 1000 µg/mL for the second.

For `NNC(=O)c1ccncc1` [ISONIAZID], the MIC90 was 4 µg/mL (≈ 29.2 µM).
